Consider 105 compounds from PubChem BioAssay AID1996.

≈ marks a conversion by molar mass, not a printed value. Where only a bound is given, the exact number is not on record here.

For this data set the following is noted: buffer; pH 7.4; 200.0 µM.
Usually kinetic solubility stands for the concentration staying in solution when a stock, usually in DMSO, is diluted into the medium. `CC1CCN(C(=O)COC(=O)c2cc3ccccc3oc2=O)CC1`: the solubility (kinetic) was more than 49.4 µg/mL. In the case of `CCc1ccc(NC(=O)NCCCN2CCCC2=O)cc1` it was more than 43.4 µg/mL; in that of `Cc1ccc(C(=O)NC(C)CCc2ccccc2)cc1S(=O)(=O)N1CCOCC1` (stereo not given), 5.6 µg/mL (≈ 13.4 µM); in that of `CCc1nc2ccccc2n1CCc1ccccc1.Cl`, 37.6 µg/mL. On to `CC1CCCN(C(=O)COC(=O)C2=COCCO2)C1` (stereo not given), for which the kinetic solubility was more than 40.4 µg/mL. `Cc1ccc(NC(=O)c2sc(N)nc2C)cc1` displayed a solubility (kinetic) of more than 37.1 µg/mL. In the case of `COc1ccc(C(=O)NCC(O)CN2CCOCC2)cc1[N+](=O)[O-]` (stereo not given) it was 38.9 µg/mL (≈ 115 µM); in that of `COc1ccccc1CNC(=O)CS(=O)(=O)c1ccccc1`, 44 µg/mL (≈ 138 µM). As for `O=Cc1c(N2CCC3(CC2)OCCO3)nc2ccccn2c1=O`, the kinetic solubility was more than 47.3 µg/mL.

`COCCC(=O)N1CCc2c([nH]c3ccccc23)C1C(C)(C)C` (stereo not given) registered a solubility (kinetic) of more than 47.2 µg/mL. The same measure for `COc1ccc2cc[nH]c2c1`: 15.3 µg/mL (≈ 104 µM); for `COc1ccc(-c2ccc(CCC(=O)O)n2Cc2ccco2)cc1`: 48.1 µg/mL (≈ 148 µM). In the case of `CN(C(=O)COC(=O)c1cccnc1Cl)C1CCCCC1` it was more than 46.6 µg/mL; in that of `Cc1ccc(NC(=O)Cc2ccc(Cl)cc2)nc1`, 28.5 µg/mL (≈ 109 µM). Take `O=C(O)CSC(=S)N1CCCC1`: the kinetic solubility turned out to be 26.7 µg/mL (≈ 130 µM).

For `CCCCC(=O)Nc1ccc(C(=O)NCCN2CCOCC2)cc1`, the solubility (kinetic) was more than 50 µg/mL. Compound `Cc1cn(C2OC(CC(=O)Oc3ccccc3)C(O)C2O)c(=O)[nH]c1=O` (stereo not given) gave a solubility (kinetic) of 48.5 µg/mL (≈ 134 µM). The compound `CNc1nc2c(N)ncnc2n1[C@H]1O[C@@H](CO)[C@H](O)[C@@H]1O` yielded a kinetic solubility of more than 44.4 µg/mL. In the case of `COc1ccc(OC)c(C(=O)CN2C(=O)C(=O)N(C3CCCC3)C2=O)c1` it was 41.3 µg/mL (≈ 115 µM); in that of `COc1cccc(/C=C/C(=O)OCC(=O)NC2CC2)c1`, more than 41.3 µg/mL; in that of `O=C(Nc1ccncc1)c1ccc2ncsc2c1`, 35.6 µg/mL (≈ 139 µM). In the case of `COc1ccc(OC)c(NC(=O)C2CC2c2ccccc2)c1` (stereo not given) it was 18 µg/mL (≈ 60.5 µM). The same measure for `O=C(Cn1c(C(=O)O)cc2ccccc21)c1ccccc1`: 39.2 µg/mL (≈ 140 µM); for `Cl.OC(COCc1ccccc1F)CN1CCCCC1` (stereo not given): 44.1 µg/mL; for `CCC(=O)c1ccc(OCC(=O)NC2CCCC2)cc1`: more than 41.3 µg/mL. In turn, `N/C(CS(=O)(=O)c1ccccc1)=N\OC(=O)c1ccc(F)cc1` registered a kinetic solubility of 8.8 µg/mL (≈ 26.2 µM). The same measure for `O=C(CCC(=O)c1ccc(Br)cc1)Nc1ccc(F)cc1`: less than 0.7 µg/mL; for `COc1ccccc1/C=C/C(=O)Nc1cccnc1Cl`: 2.7 µg/mL (≈ 9.35 µM); for `COc1ccc2c(c1)c(CC(=O)OCC(=O)O)c(C)n2C(=O)c1ccc(Cl)cc1`: more than 62.4 µg/mL. In the case of `C(=N\Nc1ccccn1)/c1cccnc1` it was more than 29.7 µg/mL; in that of `CCC(Cc1ccccc1)NC(=O)/C=C/c1ccco1` (stereo not given), 23.7 µg/mL (≈ 88 µM).

In turn, `CCCOc1ccc(-c2csc3nc[nH]c(=O)c23)cc1` had a solubility (kinetic) of 2.9 µg/mL (≈ 10.1 µM). `CC(=O)Nc1ccc(NC(=O)COC(=O)c2ccc([N+](=O)[O-])o2)cc1` registered a solubility (kinetic) of more than 52.1 µg/mL. The same measure for `Cl.N=C(N)SCP(=O)(c1ccccc1)c1ccccc1`: more than 49 µg/mL. The same measure for `CC(C)CC(=O)Nc1ccc(Oc2ccc3c(c2)C(=O)NC3=O)cc1`: 0.4 µg/mL (≈ 1.18 µM). In the case of `NS(=O)(=O)c1ccc(NC(=O)c2cccc(Cl)c2)cc1` it was 10 µg/mL (≈ 32.2 µM); in that of `CC(=O)Nc1cccc(NC(=O)/C=C/c2ccc(S(=O)(=O)N3CCOCC3)cc2)c1`, 18.8 µg/mL (≈ 43.8 µM); in that of `O=C(NCCc1ccccc1)C(=O)Nc1ccc2c(c1)OCCO2`, less than 0.3 µg/mL.

`COCCNC(=O)Cn1nc(C)c([N+](=O)[O-])c1C` returned a solubility (kinetic) of more than 38.4 µg/mL. With `O=C(NC1CCSC1)c1cccc(Cl)c1` (stereo not given), the solubility (kinetic) was more than 36.3 µg/mL. For `CCOc1ccc(CO/N=C/c2c(C)[nH]c(=O)[nH]c2=O)cc1`, the kinetic solubility worked out at 5.8 µg/mL (≈ 19.1 µM). Take `CCC(CC)NC(=O)Nc1ccc(C)cc1`: the solubility (kinetic) came out at 21.4 µg/mL (≈ 97.1 µM). In the case of `O=C(NC(=S)Nc1ccc(Br)c(Cl)c1)C1CC1` it was less than 0.4 µg/mL; in that of `CNC(=S)N1CCN(c2nc(-c3ccc(F)cc3)cs2)CC1`, 2.5 µg/mL (≈ 7.43 µM); in that of `COc1ccc(NC(C)=O)cc1CP(=O)(c1ccccc1)c1ccccc1`, more than 56.9 µg/mL. In the case of `Cc1[nH]c2ccc(C(C)C)cc2c1CC(=O)O` it was more than 34.7 µg/mL. In the case of `Cc1ccc(CC(CC(=O)O)C(=O)Nc2ccc(Cl)cc2)cc1` (stereo not given), the kinetic solubility is 48.6 µg/mL (≈ 146 µM). `COC(=O)CNC(=O)CCc1nnc(C2(c3ccc(Cl)cc3)CCC2)o1` displayed a solubility (kinetic) of more than 56.7 µg/mL.

The compound `Cc1ccc(C(=O)Nc2ccc(NC(=O)c3cccs3)cc2)c(C)c1` came in with a solubility (kinetic) of less than 0.4 µg/mL. `Cc1ccsc1C(=O)NCc1ccc(F)cc1` yielded a solubility (kinetic) of more than 37.4 µg/mL. The same measure for `O=C(Nc1ccc(O)cc1)c1ccc(NC(=O)C2CCCO2)cc1` (stereo not given): more than 49 µg/mL; for `CC1(C)CC2(C)OCCN2C(=S)N1` (stereo not given): more than 30 µg/mL; for `C[C@@H](C(=O)OCC(=O)c1ccccc1)N1C(=O)C2CCCCC2C1=O` (stereo not given in full): more than 51.5 µg/mL. In the case of `c1ccc(CNc2c3ccccc3nc3ccccc23)cc1` it was 40.5 µg/mL (≈ 142 µM). The same measure for `COc1ccc2c(c1)-c1nc(/N=C/c3ccccc3O)sc1CC2`: 44.5 µg/mL (≈ 132 µM). Take `O=C(NCCOC(=O)c1ccccc1)c1ccccc1`: the kinetic solubility is more than 40.4 µg/mL. In the case of `O=C(C1CCC1)N1CCC(O)(c2cccc(F)c2)CC1` it was 39.4 µg/mL (≈ 142 µM).

`NS(=O)(=O)c1ccc(NC(=O)CSc2ncccn2)cc1` had a solubility (kinetic) of more than 48.7 µg/mL.

As to `N#C/C(=C\c1c[nH]c2ccccc12)C(=O)NC1CC1`, the solubility (kinetic) came to 11.4 µg/mL (≈ 45.4 µM).

Compound `O=C(O)c1nc(NCc2ccccc2)ncc1Cl` gave a kinetic solubility of more than 39.6 µg/mL. In the case of `O=C(O)C1C2C=CC(C2)C1C(=O)Nc1ccc(Cl)c(Cl)c1` (stereo not given) it was 13.4 µg/mL (≈ 41.1 µM). The same measure for `CC(=O)Nc1sc(C)c(C)c1C(=O)OCCOc1ccccc1`: 1.6 µg/mL (≈ 4.8 µM); for `COc1ccc2[nH]cc(CCN3C(=O)c4ccc(C(=O)O)cc4C3=O)c2c1`: more than 54.7 µg/mL. In the case of `Cn1c(N)c(N2CCCCC2)c(=O)n(CC(=O)Nc2cccc(C#N)c2)c1=O`, the solubility (kinetic) is more than 57.4 µg/mL. The same measure for `CCN(CC(=O)Nc1ccc(OC(F)F)cc1)C1CCCCC1`: 33.1 µg/mL (≈ 101 µM); for `Cc1cc(C)c(C(=O)Nn2c(C)nc3ccccc3c2=O)cc1C`: more than 48.2 µg/mL. For the compound `CCOc1ccc(NS(=O)(=O)c2cc(NC(=O)C3CC3)ccc2C)cc1Br`, the solubility (kinetic) is 3 µg/mL (≈ 6.62 µM).

As to `Cc1cc(C)cc(NC(=O)CCn2ccnc2)c1`, the solubility (kinetic) is more than 36.5 µg/mL. Compound `Cc1ccc(C)c(NC(=S)N(C)CCO)c1` had a solubility (kinetic) of more than 35.8 µg/mL.

`C#CCOC(=O)CN1C(=O)c2cccc3cccc(c23)C1=O` yielded a kinetic solubility of less than 0.6 µg/mL. In the case of `CCCCC(=O)Nc1ccccc1CC` it was more than 30.8 µg/mL; in that of `CCN1CCN(C(=O)c2cc(-c3ccc(Cl)s3)nc3ccccc23)CC1`, 53.5 µg/mL (≈ 139 µM); in that of `C=CCSc1nc2ccccc2n2cnnc12`, more than 36.3 µg/mL. The same measure for `O=C(COc1ccc(Br)cc1)N1CCc2ccccc21`: less than 0.7 µg/mL. As for `CCCC(=O)Oc1ccc(C2NC(=O)c3ccccc3O2)cc1` (stereo not given), the solubility (kinetic) is less than 0.7 µg/mL. The compound `S=C(NCC1CCCO1)NC1CCCCC1` (stereo not given) came in with a kinetic solubility of more than 36.4 µg/mL.

`CCOC(=O)C1CCN(C(=O)Nc2ccc(C)c(Cl)c2)CC1` returned a kinetic solubility of 6.9 µg/mL (≈ 21.2 µM). The compound `CCCc1nnc(SCC(=O)NC2CC2)n1CC` had a solubility (kinetic) of more than 40.3 µg/mL. With `Clc1cc(/C=N\NC2=NCCN2)cc(Cl)n1`, the solubility (kinetic) was more than 38.7 µg/mL. The compound `O=C(NCc1ccc2c(c1)OCO2)c1ccccc1` registered a kinetic solubility of 38 µg/mL (≈ 149 µM). `CCc1ccc(OCC(=O)N2CC(C(N)=O)Oc3ccccc32)cc1` (stereo not given): the solubility (kinetic) was 45.1 µg/mL (≈ 132 µM). For the compound `COc1ccc(OCCn2cc(C=O)c3ccccc32)cc1`, the solubility (kinetic) is 14.4 µg/mL (≈ 48.8 µM). In the case of `CS(=O)(=O)Nc1ccc(Oc2ncccn2)cc1`, the kinetic solubility was more than 39.8 µg/mL. `CCOc1ccccc1OCCC(=O)Nc1ccc2c(c1)OCO2` gave a solubility (kinetic) of more than 49.4 µg/mL.

`CC(=O)Nc1nc(C)c(Oc2ccc(Cl)cc2)c(=O)[nH]1` showed a kinetic solubility of 43 µg/mL (≈ 146 µM). In the case of `Cc1ccc(CNC(=O)COC(=O)C2CC2)cc1` it was more than 37.1 µg/mL; in that of `CSc1sc(C(=O)N(C)C)c2c1S(=O)(=O)N(C)c1ccccc1-2`, more than 55.3 µg/mL; in that of `N#CC1(CCCN2CCCCC2)c2ccccc2CCc2ccccc21.O=C(O)C(=O)O`, more than 65.2 µg/mL. `Nc1cc(C(=O)OCC(=O)N2CCOCC2)ccc1Cl` displayed a kinetic solubility of more than 44.8 µg/mL. With `COC(=O)c1sccc1-c1ccc(/C=N/OC(=O)c2cccs2)o1`, the solubility (kinetic) is less than 0.8 µg/mL. The same measure for `CCOc1ncccc1C(=O)OCc1cccc([N+](=O)[O-])c1`: 0.5 µg/mL (≈ 1.65 µM); for `Cc1cccc(-n2c(C)nc3ccsc3c2=O)c1`: 35.8 µg/mL (≈ 140 µM). In the case of `COc1ccc(CC(=O)NC(C)c2ccc3ccccc3c2)cc1` (stereo not given) it was 0.7 µg/mL (≈ 2.19 µM); in that of `N/C(=N\S(=O)(=O)c1cccs1)c1ccccc1Cl`, more than 45.1 µg/mL. The same measure for `CC(=O)Nc1cc(-c2nc3ccccc3o2)ccc1Cl`: 1.6 µg/mL (≈ 5.58 µM); for `COC(=O)Cc1cc(=O)[nH]c(/N=C(\N)Nc2cccc(C)c2)n1`: 10.7 µg/mL (≈ 33.9 µM). Consider `CC(C)(CC(=O)O)CC(=O)Nc1ccc(Oc2ccc(C(C)(C)C)cc2)nc1`, for which the kinetic solubility is more than 57.7 µg/mL. The compound `Cc1ccsc1C1C(C#N)=C(N)OC2=C1C(=O)CCC2` (stereo not given) showed a solubility (kinetic) of 41.9 µg/mL (≈ 146 µM). The same measure for `NS(=O)(=O)c1ccc(CCNC(=O)CSCc2ccccc2)cc1`: 42.6 µg/mL (≈ 117 µM).

As to `CC(=O)N(Cc1ccccc1)c1nc(-c2ccccc2)cs1`, the kinetic solubility was less than 0.3 µg/mL. In turn, `CCCCCC1CCC(C(=O)NCCN2CCOCC2)CC1` (stereo not given) showed a solubility (kinetic) of 35.6 µg/mL (≈ 115 µM). In turn, `O=C(COc1ccc(Cl)cc1)Nc1ccc2c(c1)OCO2` gave a solubility (kinetic) of less than 0.7 µg/mL. In the case of `O=C1/C(=C/c2ccc([N+](=O)[O-])cc2)Oc2cc(O)ccc21` it was 6.1 µg/mL (≈ 21.5 µM); in that of `Cc1cc([N+](=O)[O-])cc2c1NC(=O)C2(O)N1CCCC(C)C1` (stereo not given), 28.3 µg/mL (≈ 92.7 µM). The same measure for `CNC(=O)Cn1ncc2c3ccccc3n(C)c2c1=O`: more than 40.5 µg/mL.
